{"source": "patent US20020128193A1", "about": "“Retro-inverso prosaposin-derived peptides and use thereof” (priority 1999, published 2002)", "molecules": {"B1": {"name": "saposin C: glycoprotein generated by proteolytic processing of prosaposin (protein, UniProt P07602 311-390, looked up)", "Saposin-C": "SDVYCEVCEFLVKEVTKLIDNNKTEKEILDAFDKMCSKLPKSLSEECQEVVDTYGSSILSILLEEVSPELVCSMLHLCSG", "modifications": "Saposin-C", "notes": "glycoprotein generated by proteolytic processing of prosaposin"}}, "key": {"[1]": {"test_system": "NS20Y neuroblastoma cells", "details": "for Bioactive?: neurite outgrowth, 0-8 ng/ml peptide, 24 hours", "method": "NS20Y neuroblastoma cells were grown in DMEM containing 10% fetal calf serum (FCS). Cells were removed with trypsin and plated in 30 mm petri dishes onto glass coverslips. […] Cells were cultured for an additional 24 hours, washed with PBS and fixed with Bouin's solution (saturated aqueous picric acid/formalin/acetic acid 15:5:1) for 30 minutes. Fixative was removed with PBS and neurite outgrowth was scored under a phase contrast microscope. […] At least 200 cells were scored in different portions of each dish to determine the percentage of neurite bearing cells and assays were performed in duplicate.\nThe ED50 value is defined as the half maximal concentration for maximal neurite outgrowth and neural protection in ng/ml."}, "[2]": {"test_system": "neuroblastoma cells and mouse cerebellar explants", "details": "cited from earlier work"}, "[3]": {"test_system": "choline acetyltransferase", "details": "neuroblastoma cells in vitro; cited from earlier work"}, "neuroblastoma cells": {"test_system": "neuroblastoma cells", "details": "neuroblastoma cells in vitro; cited from earlier work"}, "EAE rats": {"test_system": "EAE rats", "test": "Reversal of demyelination in experimental allergic encephalomyelitis (EAE) rat model", "type": "in vivo, Lewis rats", "details": "oral D8 100 μg/kg daily", "method": "Experimental allergic encephalomyelitis (EAE) is a rat model of human multiple sclerosis (MS). In rats, EAE is induced by injecting foreign protein (guinea pig spinal cord) which results in inflammation and demyelination in white matter 11 days later.\nEAE was induced in Lewis rats by injection of an emulsion of guinea pig spinal cord and complete Freund's adjuvant (CFA). At day 12-14, when weakness was evident, treatment with D8 (SEQ ID NO: 4) was begun (100 μg/kg orally in PBS via a stomach tube) and continued for 16 days every day. Six rats were injected with vehicle only. The number and size of demyelinating lesions (plaques) in the spinal cord per mm^2 was scored at […].\nAfter 16 days of oral treatment with D8 (100 μg/kg/day) beginning after the onset of EAE at 14 days, spinal cord lesions were examined and the number of remyelinated axons per lesion were counted."}, "[4]": {"test": "Localization and integrity of 125I-peptide D8 in organs after intramuscular or oral administration", "type": "in vivo, Sprague-Dawley rat", "details": "for D8 in tissue: Brain / D8 in tissue: Eyes / D8 in tissue: Heart / D8 in tissue: Kidney 1 / D8 in tissue: Kidney 2 / D8 in tissue: Liver / D8 in tissue: Lung / D8 in tissue: Muscle / D8 in tissue: Sciatic Nerve / D8 in tissue: Spinal Cord / D8 in tissue: Spleen: 200 μg/kg, rat; for crossing of the blood brain barrier: iodinated D8, rat, found in brain after oral administration", "method": "Peptide D8 (SEQ ID NO: 4) was iodinated with ^125I according to the manufacturer's instructions (Pierce Chemical Co., Rockford, Ill.), and 200 μg/kg in PBS was injected intramuscularly into, or administered orally to, an adult male Sprague-Dawley rat. […] Results below give ng/g of […] in each tissue after conversion of cpm to nanograms (Table 2). All organs studied contained 90% or greater intact D8. The trophic concentration was estimated to be about 0.2 ng/g over 20 min."}, "myelination": {"test_system": "myelination", "details": "cited from earlier work"}, "[5]": {"details": "half maximal concentration for maximal neurite outgrowth and neural protection, NS20Y cells"}}, "note": "Read-outs that look alike come from different tables or passages of the source. Non-standard residues stand in square brackets, D forms with d. Residues, ends and D or L forms follow the SMILES beside them. No end group written: not given here.", "data": [{"molecule": "YSLEKETKNNDLL [Peptide D6]", "values": [{"measurement": "ED50", "setting": "[1]; [5]", "value": 0.27, "unit": "ng/mL"}, {"measurement": "Bioactive?", "setting": "[1]; NS20Y cells", "value": "YES"}]}, {"molecule": "YLLEETANNDL [Peptide D4]", "values": [{"measurement": "ED50", "setting": "[1]; [5]", "value": 0.4, "unit": "ng/mL"}, {"measurement": "Bioactive?", "setting": "[1]; NS20Y cells", "value": "YES"}]}, {"molecule": "YLIEETANNDLAT [Peptide D2]", "values": [{"measurement": "ED50", "setting": "[1]; [5]", "value": 0.8, "unit": "ng/mL"}, {"measurement": "Bioactive?", "setting": "[1]; NS20Y cells", "value": "YES"}]}, {"molecule": "LLEETANNDL [Peptide D5]", "values": [{"measurement": "ED50", "setting": "[1]; [5]", "value": 0.2, "unit": "ng/mL"}, {"measurement": "Bioactive?", "setting": "[1]; NS20Y cells", "value": "YES"}]}, {"molecule": "CEFLVKEVTKLIDNNKTEKEIL [Peptide 22-mer, 22-mer peptide consisting of amino acids 8-29 of human saposin C]", "values": [{"measurement": "neurite outgrowth", "setting": "[2]; in both neuroblastoma cells and mouse cerebellar explants", "value": "stimulates neurite outgrowth"}, {"measurement": "choline acetyltransferase activity", "setting": "[3]", "value": "stimulates choline acetyltransferase activity"}, {"measurement": "cell death", "setting": "neuroblastoma cells", "value": "prevents cell death"}]}, {"molecule": "CC(C)C[C@@H](N)C(=O)N[C@H](CC(C)C)C(=O)N[C@H](CCC(=O)O)C(=O)N[C@H](CCC(=O)O)C(=O)N[C@H](CC(N)=O)C(=O)N[C@H](CC(N)=O)C(=O)N[C@H](CC(=O)O)C(=O)N[C@H](CC(C)C)C(=O)O", "note": "[Peptide D8, D-leu-D-leu-D-glu-D-glu-D-asn-D-asn-D-asp-D-leu] (HELM PEPTIDE1{[dL].[dL].[dE].[dE].[dN].[dN].[dD].[dL]}$$$$V2.0; N-terminus and C-terminus assumed)", "values": [{"measurement": "weight loss versus control animals", "setting": "EAE rats", "value": "no difference in weight loss"}, {"measurement": "D8 in tissue: Brain", "setting": "[4]; intramuscular, 20 min", "value": 1.00, "unit": "ng/g"}, {"measurement": "D8 in tissue: Eyes", "setting": "[4]; intramuscular, 20 min", "value": 13.9, "unit": "ng/g"}, {"measurement": "D8 in tissue: Heart", "setting": "[4]; intramuscular, 20 min", "value": 9.8, "unit": "ng/g"}, {"measurement": "D8 in tissue: Kidney 1", "setting": "[4]; intramuscular, 20 min", "value": 395, "unit": "ng/g"}, {"measurement": "D8 in tissue: Kidney 2", "setting": "[4]; intramuscular, 20 min", "value": 405, "unit": "ng/g"}, {"measurement": "D8 in tissue: Liver", "setting": "[4]; intramuscular, 20 min", "value": 8.0, "unit": "ng/g"}, {"measurement": "D8 in tissue: Lung", "setting": "[4]; intramuscular, 20 min", "value": 43.0, "unit": "ng/g"}, {"measurement": "D8 in tissue: Muscle", "setting": "[4]; intramuscular, 20 min", "value": 19.7, "unit": "ng/g"}, {"measurement": "D8 in tissue: Sciatic Nerve", "setting": "[4]; intramuscular, 20 min", "value": 36.7, "unit": "ng/g"}, {"measurement": "D8 in tissue: Spinal Cord", "setting": "[4]; intramuscular, 20 min", "value": 2.90, "unit": "ng/g"}, {"measurement": "D8 in tissue: Spleen", "setting": "[4]; intramuscular, 20 min", "value": 41.7, "unit": "ng/g"}, {"measurement": "crossing of the blood brain barrier", "setting": "[4]", "value": "can cross the blood brain barrier"}, {"measurement": "crossing of the blood brain barrier", "setting": "[4]; listed as SEQ ID NO: 4", "value": "crosses the blood brain barrier"}, {"measurement": "D8 in tissue: Brain", "setting": "[4]; oral, 25 min", "value": 5.62, "unit": "ng/g"}, {"measurement": "D8 in tissue: Eyes", "setting": "[4]; oral, 25 min", "value": 4.66, "unit": "ng/g"}, {"measurement": "D8 in tissue: Heart", "setting": "[4]; oral, 25 min", "value": 3.26, "unit": "ng/g"}, {"measurement": "D8 in tissue: Kidney 1", "setting": "[4]; oral, 25 min", "value": 201, "unit": "ng/g"}, {"measurement": "D8 in tissue: Kidney 2", "setting": "[4]; oral, 25 min", "value": 217, "unit": "ng/g"}, {"measurement": "D8 in tissue: Liver", "setting": "[4]; oral, 25 min", "value": 5.6, "unit": "ng/g"}, {"measurement": "D8 in tissue: Lung", "setting": "[4]; oral, 25 min", "value": 526, "unit": "ng/g"}, {"measurement": "D8 in tissue: Muscle", "setting": "[4]; oral, 25 min", "value": 3.2, "unit": "ng/g"}, {"measurement": "D8 in tissue: Sciatic Nerve", "setting": "[4]; oral, 25 min", "value": 3.3, "unit": "ng/g"}, {"measurement": "D8 in tissue: Spinal Cord", "setting": "[4]; oral, 25 min", "value": 2.15, "unit": "ng/g"}, {"measurement": "D8 in tissue: Spleen", "setting": "[4]; oral, 25 min", "value": 4.9, "unit": "ng/g"}, {"measurement": "ED50", "setting": "[1]", "value": 0.01, "unit": "ng/mL"}]}, {"molecule": "TXLIDNNATEEILY, X=D-alanine (T[dA]LIDNNATEEILY) [Peptide D1]", "values": [{"measurement": "ED50", "setting": "[1]; [5]", "value": 1.00, "unit": "ng/mL"}, {"measurement": "Bioactive?", "setting": "[1]; NS20Y cells", "value": "YES"}]}, {"molecule": "YKEVTKLIDNNKTEKEIL [Peptide 18-mer]", "values": [{"measurement": "neurite outgrowth", "setting": "[2]", "value": "promotes neurite outgrowth"}]}, {"molecule": "YLLEETANNDLLAT [Peptide D3]", "values": [{"measurement": "ED50", "setting": "[1]; [5]", "value": 0.4, "unit": "ng/mL"}, {"measurement": "Bioactive?", "setting": "[1]; NS20Y cells", "value": "YES"}]}, {"molecule": "B1", "values": [{"measurement": "neurite outgrowth", "setting": "[2]", "value": "stimulate neurite outgrowth"}, {"measurement": "myelination", "setting": "myelination", "value": "promote increased myelination"}]}]}
